Test results reported in patent US6353029B1, “Storage stable tretinoin and 4-hydroxyanisole containing topical composition” (Bristol-Myers Squibb Company, priority 2000, dated 2002).
Where two headings read alike, the source gives them in different places.

Assays:
[1] = cited from earlier work
[2] = Physical and chemical stability of tretinoin/4-HA cream compositions; format: physicochemical; settings: creams with other emulsifiers and thickeners added, containing 4-HA
Text: In an effort to develop a pharmaceutically elegant dermatological composition containing tretinoin and 4-HA and having long term storage stability (as hereinafter defined), the present inventors incorporated the tretinoin and 4-HA in cream compositions. The oil-in-water emulsion based creams broke. Most likely, this was due to the 4-HA component as it is soluble in both the oil phase and water phase.

In the case of CC1=C(/C=C/C(C)=C/C=C/C(C)=C/C(=O)O)C(C)(C)CCC1 [tretinoin, all-trans retinoic acid], the “shelf life of tretinoin” value ([1]; aqueous gel with Cremophor RH40 as solubilizing agent) is listed as 3 months, the “shelf life of tretinoin” value ([1]; aqueous gel without Cremophor RH40) is listed as 10 months and the “shelf life of tretinoin” value ([1]; propylene glycol-alcohol solution at 25° C, 0.05% tretinoin) is listed as 6.7 months. For the same compound, the stability of tretinoin [2] was “very unstable”.
